From patent US20250066370A1, “BICYCLIC TRIAZINE DERIVATIVES FOR THE TREATMENT OF CANCER” (DEUTSCHES KREBSFORSCHUNGSZENTRUM, priority 2022, published 2025)

How the values were obtained:
[1] = molecular target: CDK2/CyclinE (Homo sapiens (Human), UniProt P24941); experiment: CDK2/CycE kinase assay (TR-FRET); assay type: biochemical; conditions: 2 mM ATP (high ATP); median; read-out: CDK2/CyclinE, 2 mM ATP (high ATP), IC50 - [mol/l] (median)
Source text: CDK2/CycE-inhibitory activity of compounds of the present invention was quantified employing the CDK2/CycE TR-FRET assay as described in the following paragraphs.
Recombinant fusion proteins of GST and human CDK2 and of GST and human CycE, expressed in insect cells (Sf9) and purified by Glutathion-Sepharose affinity chromatography, were purchased from ProQinase GmbH (Freiburg, Germany). As substrate for the kinase reaction biotinylated peptide biotin-Ttds-YISPLKSPYKISEG (C-terminus in amid form) was used which can be purchased e.g. form the company JERINI peptide technologies (Berlin, Germany).
For the assay 50 nanoL of a 100 fold concentrated solution of the test compound in DMSO was pipetted into a black low volume 384 well microtiter plate or a black 1536 well microtiter plate (both Greiner Bio-One, Frickenhausen, Germany), 2 microL of a solution of CDK2/CycE in aqueous assay buffer [50 millimol/L Tris/HCl PH 8.0, 10 millimol/L MgCl2, 1.0 millimol/L dithiothreitol, 0.1 millimol/L sodium ortho-vanadate, 0.01% (v/v) Nonidet-P40 (Sigma)] were added and the mixture was incubated for 15 min at 22° C. to allow pre-binding of the test compounds to the enzyme before the start of the kinase reaction. Then the kinase reaction was started by the addition of 3 microL of a solution of adenosine-tri-phosphate (ATP, 3.33 millimol/L=>final conc. in the 5 microL assay volume is 2 millimol/L) and substrate (1.25 micromol/L=>final conc. in the 5 microL assay volume is 0.75 micromol/L) in assay buffer and the resulting mixture was incubated for a reaction time of 25 min at 22° C. The concentration of CDK2/CycE was adjusted depending of the activity of the enzyme lot and was chosen appropriate to have the assay in the linear range, typical concentrations were in the range of 10 ng/ml. The reaction was stopped by the addition of 3 microL of a solution of TR-FRET detection reagents (0.333 micromol/L streptavidine-XL665 [Cisbio Bioassays, Codolet, France] and 1.67 nanomol/L anti-RB (pSer807/pSer811)-antibody from BD Pharmingen [#558389] and 2 nanomol/L LANCE EU-W1024 labeled anti-mouse IgG antibody [Perkin-Elmer, product no. AD0077, as an alternative a Terbium-cryptate-labeled anti-mouse IgG antibody from Cisbio Bioassays can be used]) in an aqueous EDTA-solution (167 millimol/L EDTA, 0.2% (w/v) bovine serum albumin in 100 millimol/L HEPES pH 7.5).
The resulting mixture was incubated 1 h at 22° C. to allow the formation of complex between the phosphorylated biotinylated peptide and the detection reagents. Subsequently the amount of phosphorylated substrate was evaluated by measurement of the resonance energy transfer from the Eu-chelate to the streptavidine-XL. Therefore, the fluorescence emissions at 620 nm and 665 nm after excitation at 350 nm was measured in a TR-FRET reader, e.g. a Pherastar (BMG Labtechnologies, Offenburg, Germany) or a Viewlux (Perkin-Elmer). The ratio of the emissions at 665 nm and at […] was taken as the measure for the amount of phosphorylated substrate. The data were normalised (enzyme reaction without inhibitor=0% inhibition, all other assay components but no enzyme=100% inhibition).

[2] = system: MDA-MB-231, human breast cancer cells; experiment: Proliferation assay MDA-MB-231 (crystal violet); assay type: cell-based; conditions: 96 h, MDA-MB-231 parental cells, 4 days, median, read-out: Prolif-MDA MB-231, IC50 - [mol/l] (median)
Method: (§1) Human tumour cells were originally obtained from the American Type Culture Collection (ATCC), or from the Deutsche Sammlung von Mikroorganismen und Zellkulturen (DSMZ, German Collection of Microorganisms and Cell Cultures). Cultivated tumour cells (CAL-120, human breast adenocarcinoma cells, DSMZ ACC-459; MDA-MB-231, human breast cancer cells, ATCC HTB-26) were plated at a density of 4,000 cells/well in a 96-well multitier plate in 200 microL of their respective growth medium supplemented 10% fetal calf serum. After 24 hours, the cells of one plate (zero-point plate) were stained with crystal violet (see below), while the medium of the other plates was supplemented with the test substances in various concentrations (0 micromol/L, as well as in the range of 0.01-10 micromol/L; the final concentration of the solvent dimethyl sulfoxide was adjusted to 0.1%) using a Tecan HP D300 Digital Dispenser. The cells were incubated for 4 days in the presence of test substances. Cell proliferation was determined by staining the cells with crystal violet: the cells were fixed by adding 20 microL/measuring point of an 11% glutaric aldehyde solution for 15 minutes at room temperature. After three washing cycles of the fixed cells with water, the plates were dried at room temperature. The cells were stained by adding 100 microL/measuring point of a 0.1% crystal violet solution (pH 3.0). After three washing cycles of the stained cells with water, the plates were dried at room temperature. The dye was dissolved by adding 100 microL/measuring point of a 10% acetic acid solution. The extinction was determined by photometry at a wavelength of 595 nm. The change of cell number, in percent, was calculated by normalization of the measured values to the extinction values of the zero-point plate (=0%) and the extinction of the untreated (0 μM) cells (=100%). The IC50 values (inhibitory concentration at 50% of maximal effect) were determined by means of a 4 parameter fit.

[3] = system: CAL-120, human breast adenocarcinoma cells; experiment: Proliferation assay CAL-120 (crystal violet); assay type: cell-based; conditions: 96 h, CAL-120 parental cells, 4 days, median, read-out: Prolif-CAL-120, IC50 - [mol/l] (median)
Method: as §1

[4] = molecular target: CDK12 (Homo sapiens (Human), UniProt Q9NYV4); experiment: CDK12 nuclear protein level: immunofluorescence/high content analysis in CAL-120 cells; assay type: cell-based; conditions: 24 h, nuclear CDK12 staining intensity, median, read-out: CDK12 degradation IF, DC50 - [mol/l] (median)
Method: In the context of the present invention, the term “DC50 CDK12” refers to the DC50 values obtained according to the assay described in this section (7) herein below, i.e. the DC50 values for the degradation of CDK12.
CAL-120 human breast cancer cells (DSMZ ACC 459) are seeded in 1536-well microtiter plates (800 cells per well) containing 50 nanoL of compounds in Dose-Response. Control wells received DMSO or Example 4. Plates are then incubated for 24 h at 37° C. in an humidified incubator and fixed with 4% PFA for 10 min. Then immunofluorescence (IF) against CDK12 (CellSignalling CDK12 Antibody #11973, rabbit, 1:100 dilution) is performed using standard IF protocols. Cells are then stained with Hoechst 33342 (Life Technologies, H-1399, 0.1 microg/ml) and imaged on an automated confocal microscopy system (e.g. Perkin Elmer Opera Phenix). Nuclear and cytoplasmic intensity as well as the nuclear/cytoplasmic intensity ratio is determined by automated image analysis using custom generated scripts (MetaXpress). Data is then transferred to Genedata Screener software, normalized to DMSO and control and DC50 values (degrading concentration to achieve 50% reduction of nuclear CDK12 staining intensity relative to controls) are reported.

CDK12, sequence (Q9NYV4 whole entry): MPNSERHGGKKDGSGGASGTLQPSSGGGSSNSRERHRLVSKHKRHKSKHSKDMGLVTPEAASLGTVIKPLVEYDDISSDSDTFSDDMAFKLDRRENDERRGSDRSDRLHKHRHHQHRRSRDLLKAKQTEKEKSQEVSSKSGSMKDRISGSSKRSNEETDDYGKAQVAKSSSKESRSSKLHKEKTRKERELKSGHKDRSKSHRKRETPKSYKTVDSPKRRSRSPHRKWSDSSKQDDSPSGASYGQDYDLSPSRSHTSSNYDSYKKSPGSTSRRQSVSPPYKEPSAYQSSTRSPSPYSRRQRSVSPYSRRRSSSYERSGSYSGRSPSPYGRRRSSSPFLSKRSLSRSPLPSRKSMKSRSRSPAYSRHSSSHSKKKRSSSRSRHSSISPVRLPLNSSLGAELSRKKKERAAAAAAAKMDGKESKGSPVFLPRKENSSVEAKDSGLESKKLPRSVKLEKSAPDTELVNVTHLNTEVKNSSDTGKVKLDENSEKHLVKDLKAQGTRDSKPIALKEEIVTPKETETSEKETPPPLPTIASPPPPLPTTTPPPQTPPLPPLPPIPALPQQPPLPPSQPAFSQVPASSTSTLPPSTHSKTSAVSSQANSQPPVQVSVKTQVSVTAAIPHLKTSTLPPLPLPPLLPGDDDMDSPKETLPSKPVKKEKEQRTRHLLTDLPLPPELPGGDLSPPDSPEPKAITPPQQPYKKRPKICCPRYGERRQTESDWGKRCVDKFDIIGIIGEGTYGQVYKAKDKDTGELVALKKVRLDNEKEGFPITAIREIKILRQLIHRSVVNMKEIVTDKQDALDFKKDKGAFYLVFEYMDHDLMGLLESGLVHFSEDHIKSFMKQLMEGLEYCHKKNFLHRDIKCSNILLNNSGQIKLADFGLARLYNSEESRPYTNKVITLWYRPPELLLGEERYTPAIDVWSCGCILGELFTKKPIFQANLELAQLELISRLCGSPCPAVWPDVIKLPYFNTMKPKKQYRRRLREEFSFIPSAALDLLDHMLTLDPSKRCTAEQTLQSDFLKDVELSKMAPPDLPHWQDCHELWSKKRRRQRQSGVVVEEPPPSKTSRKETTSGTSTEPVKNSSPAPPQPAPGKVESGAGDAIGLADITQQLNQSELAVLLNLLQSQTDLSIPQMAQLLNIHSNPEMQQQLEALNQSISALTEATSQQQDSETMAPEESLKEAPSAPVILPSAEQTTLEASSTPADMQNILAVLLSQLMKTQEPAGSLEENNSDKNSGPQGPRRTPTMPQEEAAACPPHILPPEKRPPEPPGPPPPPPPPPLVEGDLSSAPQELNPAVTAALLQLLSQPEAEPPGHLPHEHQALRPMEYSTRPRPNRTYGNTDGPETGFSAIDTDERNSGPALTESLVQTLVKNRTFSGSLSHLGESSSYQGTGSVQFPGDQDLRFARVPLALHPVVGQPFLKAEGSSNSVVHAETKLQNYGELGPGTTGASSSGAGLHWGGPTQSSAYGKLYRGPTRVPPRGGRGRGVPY
CDK12, sequence (O75909 whole entry partner): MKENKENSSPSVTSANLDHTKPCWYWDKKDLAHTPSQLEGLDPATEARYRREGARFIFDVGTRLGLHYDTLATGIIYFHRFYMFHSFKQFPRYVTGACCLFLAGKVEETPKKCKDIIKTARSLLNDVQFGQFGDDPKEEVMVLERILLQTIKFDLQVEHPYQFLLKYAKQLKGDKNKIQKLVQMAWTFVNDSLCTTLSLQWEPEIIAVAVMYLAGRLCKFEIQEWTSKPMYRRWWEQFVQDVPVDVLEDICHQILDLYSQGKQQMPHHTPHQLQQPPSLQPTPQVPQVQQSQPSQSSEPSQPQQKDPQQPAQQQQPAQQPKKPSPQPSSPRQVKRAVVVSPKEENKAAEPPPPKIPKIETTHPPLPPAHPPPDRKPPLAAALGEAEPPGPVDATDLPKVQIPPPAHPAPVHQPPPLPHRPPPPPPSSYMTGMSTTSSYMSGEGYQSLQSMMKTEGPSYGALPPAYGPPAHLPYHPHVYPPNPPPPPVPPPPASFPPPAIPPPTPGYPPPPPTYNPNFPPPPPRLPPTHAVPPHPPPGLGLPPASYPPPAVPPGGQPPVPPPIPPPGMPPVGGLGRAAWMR

| Structure (SMILES) | IC50 [1] | IC50 [2] | IC50 [3] | DC50 [4] |
| --- | --- | --- | --- | --- |
| FC(F)(F)Oc1ccc(-c2nnc(CNc3nc(N4CCOCC4)nc4c(C(F)(F)F)cnn34)[nH]2)cc1 [Example 5, 2-(morpholin-4-yl)-N-({5-[4-(trifluoromethoxy)phenyl]-4H-1,2,4-triazol-3-yl}methyl)-8-(trifluoromethyl)pyrazolo[1,5-a][1,3,5]triazin-4-amine] | > 20000 nM | 319 nM | 319 nM | 1000 nM |
| FC(F)(F)c1ccc(-c2nnc(CNc3nc(N4CCOCC4)nc4c(C(F)(F)F)cnn34)[nH]2)cc1 [Example 6, 2-(morpholin-4-yl)-8-(trifluoromethyl)-N-({5-[4-(trifluoromethyl)phenyl]-4H-1,2,4-triazol-3-yl}methyl)pyrazolo[1,5-a][1,3,5]triazin-4-amine] | > 20000 nM | 777 nM | 224 nM | 1000 nM |
| FC(F)(F)Oc1ccc(-c2nnc(CNc3nc(N4CCOCC4)nn4c(C(F)(F)F)cnc34)[nH]2)cn1 [Example 19, 2-(morpholin-4-yl)-N-({5-[6-(trifluoromethoxy)pyridin-3-yl]-4H-1,2,4-triazol-3-yl}methyl)-7-(trifluoromethyl)imidazo[2,1-f][1,2,4]triazin-4-amine] | > 20000 nM | 37.5 nM | 63.2 nM |  |
| FC(F)(F)Oc1ccc(-c2cnc(CNc3nc(N4CCOCC4)nc4c(C(F)(F)F)cnn34)[nH]2)cc1 [Example 10, 2-(morpholin-4-yl)-N-({5-[4-(trifluoromethoxy)phenyl]-1H-imidazol-2-yl}methyl)-8-(trifluoromethyl)pyrazolo[1,5-a][1,3,5]triazin-4-amine] | > 20000 nM | 123 nM | 69.8 nM | > 1000 nM |
| FC(F)(F)c1ccc(-c2cnc(CNc3nc(N4CCOCC4)nc4c(C(F)(F)F)cnn34)[nH]2)cc1 [Example 9, 2-(morpholin-4-yl)-8-(trifluoromethyl)-N-({5-[4-(trifluoromethyl)phenyl]-1H-imidazol-2-yl}methyl)pyrazolo[1,5-a][1,3,5]triazin-4-amine] | > 20000 nM | 190 nM | 109 nM | 950 nM |
| COc1ccc(-c2nnc(CNc3nc(N4CCOCC4)nn4c(C(F)(F)F)cnc34)[nH]2)cn1 [Example 18, N-{[5-(6-methoxypyridin-3-yl)-4H-1,2,4-triazol-3-yl]methyl}-2-(morpholin-4-yl)-7-(trifluoromethyl)imidazo[2,1-f][1,2,4]triazin-4-amine] |  | 72.1 nM | 104 nM | > 1000 nM |
| FC(F)(F)c1ccc(-c2cnc(CNc3nc(N4CCOCC4)nc4c(Br)cnn34)[nH]2)cc1 [Example 3, 8-bromo-2-(morpholin-4-yl)-N-({5-[4-(trifluoromethyl)phenyl]-1H-imidazol-2-yl}methyl)pyrazolo[1,5-a][1,3,5]triazin-4-amine] | 7920 nM |  | 173 nM | > 2880 nM |
| FC(F)(F)c1ccc(-c2nnc(CNc3nc(N4CCOCC4)nc4c(Br)cnn34)[nH]2)cc1 [Example 1, 8-bromo-2-(morpholin-4-yl)-N-({5-[4-(trifluoromethyl)phenyl]-4H-1,2,4-triazol-3-yl}methyl)pyrazolo[1,5-a][1,3,5]triazin-4-amine] | 9810 nM |  | 580 nM | 2380 nM |
| FC(F)(F)Oc1ccc(-c2nnc(CNc3nc(N4CCOCC4)nc4c(Br)cnn34)[nH]2)cc1 [Example 2, 8-bromo-2-(morpholin-4-yl)-N-({5-[4-(trifluoromethoxy)phenyl]-4H-1,2,4-triazol-3-yl}methyl)pyrazolo[1,5-a][1,3,5]triazin-4-amine] | 11200 nM |  | 370 nM | > 2790 nM |
| FC(F)(F)c1ccc(-c2cnc(CNc3nc(N4CCOCC4)nc4c(C(F)(F)F)cnn34)[nH]2)cn1 [Example 24, 2-(morpholin-4-yl)-8-(trifluoromethyl)-N-({5-[6-(trifluoromethyl)pyridin-3-yl]-1H-imidazol-2-yl}methyl)pyrazolo[1,5-a][1,3,5]triazin-4-amine] |  | 21.7 nM | 30.2 nM | > 1000 nM |
